Reference: US20160158200A1, “Combinations of Hepatitis C Virus Inhibitors” (priority 2013, published 2016)

Tested on: HCV genotype-1a variant with glutamine 30 changed to glutamate in the NS5A protein
Type: cell-based
Details: test compound titrated with BMS-790052 fixed at 200 nM; genotype 1a Q30E replicon
In short: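 Synergy was assessed by combining several fixed amounts of an NS5A-targeting compound with a titration of the second compound of interest.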

| Compound | Fold-Synergistic 1a (Q30E) [fold] |
| --- | --- |
| CC(O)C1(C(=O)N[C@H](c2ncc(-c3ccc(-c4ccc(-c5cnc([C@@H](NC(=O)C6(C(C)O)CC6)C(C)(C)C)[nH]5)cc4)cc3)[nH]2)C(C)(C)C)CC1 (single isomer, unassigned) [Compound B74] | >100 |
| CC(C)(C)[C@H](NC(=O)c1ccncc1F)c1nc(-c2ccc(-c3ccc(-c4c[nH]c([C@@H](NC(=O)c5ccncc5F)C(C)(C)C)n4)cc3)cc2)c[nH]1 [Compound P-24] | >100 |
| CC(C)[C@H](NC(=O)N1CCCC1)c1ncc(-c2ccc(-c3ccc(-c4cnc([C@@H](NC(=O)N5CCCC5)C(C)C)[nH]4)cc3)cc2)[nH]1 [Compound S-232] | >100 |
| COC(c1ccccc1)C1(C(=O)N[C@H](c2nc(-c3ccc(-c4ccc(-c5c[nH]c([C@@H](NC(=O)C6(C(OC)c7ccccc7)CC6)C(C)(C)C)n5)cc4)cc3)c[nH]2)C(C)(C)C)CC1 (single isomer, unassigned) [Compound N-137A] | >100 |
| CC(C)[C@H](NC(=O)c1ccc2nccnc2c1)c1ncc(-c2ccc(-c3ccc(-c4cnc([C@@H](NC(=O)c5ccc6nccnc6c5)C(C)C)[nH]4)cc3)cc2)[nH]1 [Compound S-19] | >100 |
| CCn1nc(C)cc1C(=O)N[C@H](c1ncc(-c2ccc(-c3ccc(-c4cnc([C@@H](NC(=O)c5cc(C)nn5CC)C(C)C)[nH]4)cc3)cc2)[nH]1)C(C)C [Compound S-99] | >10 |
| Cc1ccoc1C(=O)N[C@H](c1ncc(-c2ccc(-c3ccc(-c4cnc([C@@H](NC(=O)c5occc5C)C(C)C)[nH]4)cc3)cc2)[nH]1)C(C)C [Compound S-90] | >100 |
| C=C1CCC(C(=O)N[C@H](c2nc(-c3ccc(-c4ccc(-c5c[nH]c([C@@H](NC(=O)C6CCC(=C)CC6)C(C)(C)C)n5)cc4)cc3)c[nH]2)C(C)(C)C)CC1 [Compound N-118] | >100 |
| CC(C)[C@H](NC(=O)c1ccccc1Cl)c1ncc(-c2ccc(-c3ccc(-c4cnc([C@@H](NC(=O)c5ccccc5Cl)C(C)C)[nH]4)cc3)cc2)[nH]1 [Compound S-65] | >100 |
| CC(C)[C@H](NC(=O)c1ccccc1C(F)(F)F)c1ncc(-c2ccc(-c3ccc(-c4cnc([C@@H](NC(=O)c5ccccc5C(F)(F)F)C(C)C)[nH]4)cc3)cc2)[nH]1 [Compound S-69] | >100 |
| O=C(c1cccc2cnccc12)N1CCC[C@H]1c1ncc(-c2ccc(-c3ccc(-c4cnc([C@@H]5CCCN5C(=O)c5cccc6cnccc56)[nH]4)cc3)cc2)[nH]1 [Compound S-203] | <10 |
| CC(C)[C@H](NC(=O)c1cccc(Cl)c1)c1ncc(-c2ccc(-c3ccc(-c4cnc([C@@H](NC(=O)c5cccc(Cl)c5)C(C)(C)C)[nH]4)cc3)cc2)[nH]1 [Compound Y-46] | >100 |
| CC(C)[C@H](NC(=O)C1(F)CCCCC1)c1ncc(-c2ccc(-c3ccc(-c4cnc([C@@H](NC(=O)C5(F)CCCCC5)C(C)C)[nH]4)cc3)cc2)[nH]1 [Compound Y-30] | >100 |
| O=C(C1CC1)N1CCC[C@H]1c1ncc(-c2ccc(-c3ccc(-c4cnc([C@@H]5CCCN5C(=O)C5CC5)[nH]4)cc3)cc2)[nH]1 [Compound S-109] | <10 |
| CC(C)(C(=O)N[C@H](c1ncc(-c2ccc(-c3ccc(-c4cnc([C@@H](NC(=O)C(C)(C)C5CCOCC5)C(C)(C)C)[nH]4)cc3)cc2)[nH]1)C(C)(C)C)C1CCOCC1 [Compound B98] | >100 |
| CC(C)(C)[C@H](NC(=O)[C@@]1(C)CC(F)(F)CO1)c1nc(-c2ccc(-c3ccc(-c4c[nH]c([C@@H](NC(=O)[C@@]5(C)CC(F)(F)CO5)C(C)(C)C)n4)cc3)cc2)c[nH]1 [Compound Y-77] | >100 |
| COC(CO)(CC(C)C)C(=O)N[C@H](c1nc(-c2ccc(-c3ccc(-c4c[nH]c([C@@H](NC(=O)C(CO)(CC(C)C)OC)C(C)(C)C)n4)cc3)cc2)c[nH]1)C(C)(C)C (single isomer, unassigned) [Compound N-160B] | >100 |
| CC(C)[C@H](NC(=O)c1cc(C(C)(C)C)nn1C)c1ncc(-c2ccc(-c3ccc(-c4cnc([C@@H](NC(=O)c5cc(C(C)(C)C)nn5C)C(C)C)[nH]4)cc3)cc2)[nH]1 [Compound S-101] | >100 |
| CC(C)[C@H](NC(=O)c1cncnc1)c1ncc(-c2ccc(-c3ccc(-c4cnc([C@@H](NC(=O)c5cncnc5)C(C)C)[nH]4)cc3)cc2)[nH]1 [Compound S-61] | >10 |
| CC(C)[C@H](NC(=O)C(C)(C)C)c1ncc(-c2ccc(-c3ccc(-c4cnc([C@@H](NC(=O)C(C)(C)C)C(C)(C)C)[nH]4)cc3)cc2)[nH]1 [Compound Y-41] | >100 |
| CC(C)(C)OC(=O)NC(C)(C)C(=O)N[C@H](c1nc(-c2ccc(-c3ccc(-c4c[nH]c([C@@H](NC(=O)C(C)(C)NC(=O)OC(C)(C)C)C(C)(C)C)n4)cc3)cc2)c[nH]1)C(C)(C)C [Compound L-3] | >100 |

| Compound | Fold-Synergistic 1a (Q30E) [fold] |
| --- | --- |
| CC(C)(C)[C@H](NC(=O)C(=O)N1CCCCC1)c1nc(-c2ccc(-c3ccc(-c4c[nH]c([C@@H](NC(=O)C(=O)N5CCCCC5)C(C)(C)C)n4)cc3)cc2)c[nH]1 [Compound W-11] | >100 |
| CC(C)(C)[C@H](NC(=O)C1CCC(F)(F)CC1)c1ncc(-c2ccc(-c3cc4ccc(-c5cnc([C@@H](NC(=O)C6CCC(F)(F)CC6)C(C)(C)C)[nH]5)cc4o3)cc2)[nH]1 [Compound B61] | >100 |
| CC(C)(C)OC(=O)NC1CCCCC1C(=O)N[C@H](c1nc(-c2ccc(-c3ccc(-c4c[nH]c([C@@H](NC(=O)C5CCCCC5NC(=O)OC(C)(C)C)C(C)(C)C)n4)cc3)cc2)c[nH]1)C(C)(C)C (single isomer, unassigned) [Compound W-23C] | >100 |
| CC(C)(C)[C@H](NC(=O)C1CCC(C(F)F)CC1)c1nc(-c2ccc(-c3ccc(-c4c[nH]c([C@@H](NC(=O)C5CCC(C(F)F)CC5)C(C)(C)C)n4)cc3)cc2)c[nH]1 (some centres unmarked) [Compound Y-71] | >100 |
| COC1(C(=O)NC(c2nc(-c3ccc(-c4ccc(-c5c[nH]c(C(NC(=O)C6(OC)CCOC6)C(C)(C)C)n5)cc4)cc3)c[nH]2)C(C)(C)C)CCOC1 (mixture of isomers) [Compound N-158] | >100 |
| COC(=O)NC(C(=O)N1CCCC1c1ncc(-c2ccc(-c3ccc(-c4cnc(C(NC(=O)C5CCC(F)(F)CC5)C(C)(C)C)[nH]4)cc3)cc2)[nH]1)C(C)C (centres unmarked) [Compound B-192] | >10 |
| COC(=O)NC(C(=O)N1CCCC1c1ncc(-c2ccc(-c3ccc(-c4cnc(C(NC(=O)C5(C)CCC(F)(F)CO5)C(C)(C)C)[nH]4)cc3)cc2)[nH]1)C(C)C (centres unmarked) [Compound B-193] | >10 |
| CC(C)(C)[C@H](NC(=O)C1CCCCC1CO)c1nc(-c2ccc(-c3ccc(-c4c[nH]c([C@@H](NC(=O)C5CCCCC5CO)C(C)(C)C)n4)cc3)cc2)c[nH]1 (single isomer, unassigned) [Compound L-141a] | >100 |
| CC(C)[C@H](NC(=O)N(C)C)c1nc(-c2ccc(-c3ccc(-c4c[nH]c([C@@H](NC(=O)N(C)C)C(C)C)n4)cc3)cc2)c[nH]1 [Compound S-228] | >100 |
| COC(=O)N(C)C1(C(=O)N[C@H](c2ncc(-c3ccc(-c4cc5ccc(-c6cnc([C@@H](NC(=O)C7(N(C)C(=O)OC)CC7)C(C)(C)C)[nH]6)cc5o4)cc3)[nH]2)C(C)(C)C)CC1.O=C(O)C(F)(F)F [Compound B63] | >10 |
| CC(C)[C@H](NC(=O)C1CCC(F)(F)CC1)c1ncc(-c2ccc(C#Cc3ccc4nc([C@@H](NC(=O)C5CCC(F)(F)CC5)C(C)C)[nH]c4c3)cc2)[nH]1 [Compound B51] | >100 |
| CC(C)[C@H](NC(=O)c1cc(F)cc(F)c1)c1ncc(-c2ccc(-c3ccc(-c4cnc([C@@H](NC(=O)c5cc(F)cc(F)c5)C(C)C)[nH]4)cc3)cc2)[nH]1 [Compound Y-23] | >100 |
| CC(C)(C)[C@H](NC(=O)C1CCN(S(C)(=O)=O)CC1)c1nc(-c2ccc(-c3ccc(-c4c[nH]c([C@@H](NC(=O)C5CCN(S(C)(=O)=O)CC5)C(C)(C)C)n4)cc3)cc2)c[nH]1 [Compound S-255] | >100 |
| CC1(C(=O)N[C@H](c2ncc(-c3ccc(-c4ccc(-c5cnc([C@@H](NC(=O)C6(C)CCC(F)(F)CC6)C6(C)CC6)[nH]5)cc4)cc3)[nH]2)C2(C)CC2)CCC(F)(F)CC1 [Compound P-133] | >100 |
| CC(C)CC(=O)NC1(c2ncc(-c3ccc(-c4ccc(-c5cnc(C6(NC(=O)CC(C)C)CCCC6)[nH]5)cc4)cc3)[nH]2)CCCC1.O=C(O)C(F)(F)F.O=C(O)C(F)(F)F [Compound N-12] | <10 |
| CC(C)[C@H](NC(=O)Cc1ccccc1)c1ncc(-c2ccc(-c3ccc(-c4cnc([C@@H](NC(=O)Cc5ccccc5)C(C)C)[nH]4)cc3)cc2)[nH]1 [Compound S-36] | >10 |
| CC(C)[C@H](NC(=O)C1(CF)CC1)c1ncc(-c2ccc(-c3ccc(-c4cnc([C@@H](NC(=O)C5(CF)CC5)C(C)C)[nH]4)cc3)cc2)[nH]1 [Compound P-73] | >100 |
| CC(C)[C@H](NC(=O)c1cc(Cl)cc(Cl)c1)c1ncc(-c2ccc(-c3ccc(-c4cnc([C@@H](NC(=O)c5cc(Cl)cc(Cl)c5)C(C)C)[nH]4)cc3)cc2)[nH]1 [Compound S-76] | >100 |
| CC(C)(F)C(NC(=O)C1CCC(F)(F)CC1)c1nc(-c2ccc(-c3ccc(-c4c[nH]c(C(NC(=O)C5CCC(F)(F)CC5)C(C)(C)F)n4)cc3)cc2)c[nH]1 (single isomer, unassigned) [Compound N-106A] | >100 |
| COC(=O)C1(C(=O)N[C@H](c2nc(-c3ccc(-c4ccc(-c5c[nH]c([C@@H](NC(=O)C6(C(=O)OC)CC6)C(C)(C)C)n5)cc4)cc3)c[nH]2)C(C)(C)C)CC1 [Compound W-124] | >100 |
